Publication PMC3515450, “Mechanistic and Structural Understanding of Uncompetitive Inhibitors of Caspase-6” (PLoS ONE, 2012)
Residue numbers refer to the chain shown, from its start.

Columns and labels:
[1] = molecular target: T1, caspase-6/(VEID)2R110 Michaelis complex (Homo sapiens, UniProt P55212, C163A); assay: SPR co-injection with (VEID)2R110 over apo- and C163A-caspase-6; format: binding; details: co-injected with (VEID)2R110, dissociation of both compound and substrate, read-out: apparent KD
T1 construct: Avi-tagged zymogen C163A-caspase-6 was processed to mature C163A-caspase-6 by the addition of active caspase-3 and caspase-6; made in house
T1 sequence (P55212 24-179 C163A): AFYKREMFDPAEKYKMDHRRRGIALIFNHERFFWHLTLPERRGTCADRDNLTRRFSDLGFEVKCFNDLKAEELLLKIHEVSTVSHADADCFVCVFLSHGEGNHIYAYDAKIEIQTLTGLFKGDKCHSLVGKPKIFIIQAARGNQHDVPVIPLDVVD
T1 sequence (P55212 194-293): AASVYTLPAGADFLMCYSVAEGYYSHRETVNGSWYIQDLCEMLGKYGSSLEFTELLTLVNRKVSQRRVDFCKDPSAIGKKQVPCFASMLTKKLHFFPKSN
Experimental: (§1) For SPR experiments, caspase-6 was cloned to include a C-terminal avi-tag (Avidity) and expressed and purified as above, except that biotin ligase (BirA) was co-expressed during fermentation. […] Avi-tagged zymogen C163A-caspase-6 was processed to mature C163A-caspase-6 by the addition of active caspase-3 and caspase-6. Chip preparation for neutravidin-based capture was performed as previously described using either a Biacore T100 or Biacore 3000 instrument (GE Healthcare). Running buffer was 50 mM HEPES pH 7.2, 100 mM MgSO4, 30 mM NaCl, 1 mM TCEP, 0.01% Triton X-100, 1% PEG-3350, 2.5% DMSO, and the instrument was set for 20 degrees C. After capture one flow cell of apo-caspase-6 was exposed to a continuous flow of 20 µM VEID-FMK. A rise in signal could be detected for the binding/reacting of the VEID-FMK and exposure was continued until no additional rise in response was observed (∼45 minutes) indicating full saturation of all binding sites. There was no observed decrease in signal upon washing, indicating the reaction was irreversible. […] Fluorescent substrates were too limiting in solubility and quantity to be added to the running buffer, so substrates were mixed at a concentration equal to their Kmapp with 3 and injected together over the indicated surfaces. […]

apo-caspase-6 = molecular target: T2, apo-caspase-6 (Homo sapiens, UniProt P55212); assay: SPR binding to apo-caspase-6; details: Rmax locked to control compound
T2 construct: Residues 24-179 and 194-293 from caspase-6 cDNA (Origene) were cloned into pET-24b and pET-23b vectors; 6x histidine tag; made in house; host or cells: E. coli (as above), BirA co-expressed
T2 sequence (P55212 24-179): T1 sequence (P55212 24-179 C163A) with A140C
T2 sequence (P55212 194-293): T1 sequence (P55212 194-293)
Experimental: as §1

Kd [1]: ~0.2 µM | Kd (apo-caspase-6): 192 µM
Structure (SMILES): COc1ccc(-c2cc(C(=O)N[C@@H](CO)Cc3cccc(C#N)c3)co2)cc1OC [Compound 3]
